Source: patent US20060105008A1, “Compositions and methods for reducing vaginal pH” (priority 2002, published 2006)
In brackets after ≈: the same amount, converted by molar mass. Read-outs that look alike come from different tables or passages of the source.

Legend:
Experiment in all cases: In vitro evaluation of azole compounds, MIC
Format in all cases: cell-based
Prevotella disiens = conditions: one table line per isolate; for MIC: read-out: MIC's of drug needed to inhibit the growth of organism
[1] = system: Prevotella melaninogenica; conditions: one table line per isolate; for MIC: read-out: MIC's of drug needed to inhibit the growth of organism
Lactobacillus plantarum = conditions: Lactiplantibacillus plantarum, read-out: MIC's of drug needed to inhibit the growth of organism
[2] = system: Lactobacillus acidophilus; conditions: one table line per isolate; for MIC: read-out: MIC's of drug needed to inhibit the growth of organism
Lactobacillus species = conditions: read-out: MIC's of drug needed to inhibit the growth of organism
Bacillus theta = conditions: read-out: MIC's of drug needed to inhibit the growth of organism
Prevotella bivia = conditions: one table line per isolate; for MIC: read-out: MIC's of drug needed to inhibit the growth of organism
Mobiluncus mulieris = conditions: read-out: MIC's of drug needed to inhibit the growth of organism
Prevotella intermedia = conditions: one table line per isolate; for MIC: read-out: MIC's of drug needed to inhibit the growth of organism
Bacillus fragilis = conditions: read-out: MIC's of drug needed to inhibit the growth of organism
[3] = system: Peptostreptococcus asaccharolyticus; conditions: Peptoniphilus asaccharolyticus, one table line per isolate, read-out: MIC's of drug needed to inhibit the growth of organism
[4] = system: Peptostreptococcus tetradius; conditions: for MIC: Anaerococcus tetradius, read-out: MIC's of drug needed to inhibit the growth of organism
Gardnerella vaginalis = conditions: one table line per isolate, read-out: MIC's of drug needed to inhibit the growth of organism
[5] = system: Peptostreptococcus magnus; conditions: Finegoldia magna, one table line per isolate, read-out: MIC's of drug needed to inhibit the growth of organism
[6] = Peptostreptococcus tetradius, one table line per isolate

| SMILES | MIC (Prevotella disiens) [µg/mL] | MIC [1] [µg/mL] | MIC (Lactobacillus plantarum) [µg/mL] | MIC [2] [µg/mL] | MIC (Lactobacillus species) [µg/mL] | MIC (Bacillus theta) [µg/mL] | MIC (Prevotella bivia) [µg/mL] | MIC (Mobiluncus mulieris) [µg/mL] | MIC (Prevotella intermedia) [µg/mL] | MIC (Bacillus fragilis) [µg/mL] | MIC's of drug needed to inhibit the growth of organism (Prevotella intermedia) [µg/mL] | MIC [3] [µg/mL] | MIC [4, 6] [µg/mL] | MIC's of drug needed to inhibit the growth of organism [4, 6] [µg/mL] | MIC [5] [µg/mL] | also measured |
| --- | --- | --- | --- | --- | --- | --- | --- | --- | --- | --- | --- | --- | --- | --- | --- | --- |
| Clc1ccc(COC(Cn2ccnc2)c2ccc(Cl)cc2Cl)c(Cl)c1 (stereo not shown) [Miconazole] | 64 (≈ 154 µM) | 64 (≈ 154 µM) | 32 (≈ 76.9 µM) | > 128 | > 128 | 128 (≈ 308 µM) | 128 (≈ 308 µM) | 8 (≈ 19.2 µM) | 64 (≈ 154 µM) | > 128 |  |  |  |  |  | MIC's of drug needed to inhibit the growth of organism (Prevotella bivia): 64 µg/mL |
| CCS(=O)(=O)CCn1c([N+](=O)[O-])cnc1C [Tinidazole] |  | 2 (≈ 8.09 µM) | 0.65 (≈ 2.63 µM) | > 128 | > 128 | 1 (≈ 4.04 µM) | 1 (≈ 4.04 µM) | 1 (≈ 4.04 µM) | 0.5 (≈ 2.02 µM) | 0.5 (≈ 2.02 µM) | 1 | 1 (≈ 4.04 µM) | 0.5 (≈ 2.02 µM) | 0.25 |  | MIC's of drug needed to inhibit the growth of organism [1]: 1 µg/mL; MIC's of drug needed to inhibit the growth of organism [2]: <128 µg/mL |
| OC(Cn1cncn1)(Cn1cncn1)c1ccc(F)cc1F [Fluconazole] | > 2050 | > 2050 | > 2050 | > 2050 | > 2050 | > 2050 | > 2050 | > 2050 | > 2050 | > 2050 |  | > 2050 |  |  | > 2050 | MIC (Gardnerella vaginalis): > 2050 µg/mL; MIC's of drug needed to inhibit the growth of organism [4]: 2048 µg/mL; MIC [4]: > 2050 µg/mL |
| CC(C)N1CCN(c2ccc(OCC3COC(Cn4cncn4)(c4ccc(Cl)cc4Cl)O3)cc2)CC1 (stereo not shown) [Terconazole] | 128 (≈ 240 µM) | 64 (≈ 120 µM) | 256 (≈ 481 µM) | 512 (≈ 962 µM) | 512 (≈ 962 µM) | 256 (≈ 481 µM) | 256 (≈ 481 µM) | 256 (≈ 481 µM) | 128 (≈ 240 µM) | 256 (≈ 481 µM) | 256 | 256 (≈ 481 µM) | 256 (≈ 481 µM) |  | 256 (≈ 481 µM) |  |
| Cc1ncc([N+](=O)[O-])n1CCO [Metronidazole] | 0.5 (≈ 2.92 µM) |  | 1 (≈ 5.84 µM) | > 32 | > 32 | 2 (≈ 11.7 µM) | 1 (≈ 5.84 µM) | 4 (≈ 23.4 µM) | 1 (≈ 5.84 µM) | 0.5 (≈ 2.92 µM) |  |  | 1 (≈ 5.84 µM) | 0.5 |  | MIC's of drug needed to inhibit the growth of organism (Prevotella disiens): 1 µg/mL |
